According to BindingDB's records for doi:10.1021/acs.jmedchem.7b00089 (International Centre For Genetic Engineering and …, 2017):

Target: T1, Heme ligase (Plasmodium falciparum (isolate 3D7), UniProt Q8IL04)
T1 sequence (Q8IL04 whole entry): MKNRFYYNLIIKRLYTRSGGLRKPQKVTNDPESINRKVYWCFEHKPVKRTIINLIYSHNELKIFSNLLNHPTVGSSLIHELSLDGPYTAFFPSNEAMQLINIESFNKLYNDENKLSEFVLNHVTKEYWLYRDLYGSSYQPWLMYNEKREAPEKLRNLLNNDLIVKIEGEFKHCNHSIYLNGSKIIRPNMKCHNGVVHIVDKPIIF
Assay: ChEBML_1681013
From the text: Binding affinity to Plasmodium falciparum 3D7 HDP assessed as equilibrium dissociation constant by SPR assay

`FC(F)(F)c1cccc(N2CCN(C3=Cc4ccccc4CC3)CC2)c1` gave a Kd of 2960 nM.
